Assay [1] has as its target T1, Endoribonuclease toxin MazF (Escherichia coli K-12, UniProt P0AE70).
T1 sequence (P0AE70 whole entry): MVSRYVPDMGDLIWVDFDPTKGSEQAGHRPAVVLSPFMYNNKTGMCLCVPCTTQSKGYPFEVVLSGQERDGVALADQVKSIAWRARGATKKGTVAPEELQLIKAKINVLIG
Nature of the assay: activation of MazEF endoribonuclease cleavage – biochemical, fluorescence, single-stranded RNA substrate, uHTS hits, dose response (AID 588481). The class given is functional.

Assay [2] addresses T1, Endoribonuclease toxin MazF. Nature of the assay: substrate-only fluorescence increase artefacts – biochemical, single-stranded RNase substrate, counter-screen for MazEF activator project, dose response (AID 588502). The class given is functional. For orientation: The purpose of a counterscreen is to sort out artefacts and off-target activity.
For assay [3], the target named is T2, Corticotropin-releasing factor receptor 2/Corticotropin-releasing factor-binding protein (Homo sapiens, UniProt P24387+Q13324).
T2 sequence (Q13324 whole entry): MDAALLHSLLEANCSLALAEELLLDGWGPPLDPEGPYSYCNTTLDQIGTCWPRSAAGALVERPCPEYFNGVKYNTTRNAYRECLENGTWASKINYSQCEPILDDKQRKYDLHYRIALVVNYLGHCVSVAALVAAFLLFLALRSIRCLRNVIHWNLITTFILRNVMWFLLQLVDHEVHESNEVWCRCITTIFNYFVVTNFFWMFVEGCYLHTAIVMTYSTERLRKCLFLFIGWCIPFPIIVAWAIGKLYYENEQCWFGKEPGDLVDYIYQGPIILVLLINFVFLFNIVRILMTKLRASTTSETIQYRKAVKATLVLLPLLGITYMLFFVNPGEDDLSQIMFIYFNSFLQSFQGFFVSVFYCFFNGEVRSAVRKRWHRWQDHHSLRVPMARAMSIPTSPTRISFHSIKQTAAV
T2 sequence (P24387 whole entry): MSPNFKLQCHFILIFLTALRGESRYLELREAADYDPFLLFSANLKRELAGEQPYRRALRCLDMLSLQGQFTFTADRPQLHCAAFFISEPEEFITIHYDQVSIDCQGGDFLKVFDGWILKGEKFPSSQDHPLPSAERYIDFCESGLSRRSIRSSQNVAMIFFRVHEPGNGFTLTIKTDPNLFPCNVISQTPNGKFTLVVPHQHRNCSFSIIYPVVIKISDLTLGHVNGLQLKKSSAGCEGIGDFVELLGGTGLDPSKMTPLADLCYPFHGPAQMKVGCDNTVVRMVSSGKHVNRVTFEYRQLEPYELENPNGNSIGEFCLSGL
Nature of the assay: activators of CRF receptor 2 with binding protein – uHTS hits, confirmation (AID 602473). The conditions noted are these: read-out: EC50_Mean. The class given is functional.

The subject of the next assay is HEK293. The experiment in a line: EBV LMP1 TES2 canonical NF-kB signalling blockers – cell-based, HEK293, luciferase, cherry-pick, dose response (AID 588343). The class given is functional. The conditions noted are these: Homo sapiens.
In a further assay the test system is INS1. The experiment in a line: INS-1E survival protection against cytokine death – cell-based, luminescence, retest, dose response (AID 449756).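 Note: cell death triggered by IL-1 beta plus TNF-alpha plus IFN-gamma mixture; protective hits raise ATP signal compared with cytokine alone wells.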 The conditions noted are these: Rattus norvegicus. The class given is functional.
Assay [4] has as its target T3, Heat shock factor protein 1 (Mus musculus, UniProt P38532).
T3 sequence (P38532 whole entry): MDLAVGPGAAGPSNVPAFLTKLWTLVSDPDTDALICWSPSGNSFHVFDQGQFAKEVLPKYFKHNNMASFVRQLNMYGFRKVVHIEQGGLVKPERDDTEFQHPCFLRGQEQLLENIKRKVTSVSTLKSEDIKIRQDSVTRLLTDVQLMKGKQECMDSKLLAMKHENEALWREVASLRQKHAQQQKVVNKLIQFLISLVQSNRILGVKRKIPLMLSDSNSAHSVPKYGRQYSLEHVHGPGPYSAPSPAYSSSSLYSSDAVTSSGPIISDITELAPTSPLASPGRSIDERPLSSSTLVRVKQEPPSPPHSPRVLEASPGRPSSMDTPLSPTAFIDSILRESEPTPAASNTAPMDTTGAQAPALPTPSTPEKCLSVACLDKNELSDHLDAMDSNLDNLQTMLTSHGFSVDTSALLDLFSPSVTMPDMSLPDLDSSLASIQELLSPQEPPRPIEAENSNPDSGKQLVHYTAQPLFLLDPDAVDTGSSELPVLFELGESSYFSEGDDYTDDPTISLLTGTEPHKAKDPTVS
The experiment in a line: decrease of HSF1-responsive luciferase luminescence – cell-based, NIH3T3, dose retest, confirmation (AID 2382).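 Note: NIH3T3 fibroblasts with HSF1-driven luciferase reporter stressed by proteasome inhibitor MG132; luminescence from HSF1-driven luciferase expression after 8 hours of MG132 stress.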 The class given is functional.

Another assay deals with Trypsin (Sus scrofa, UniProt P00761). The experiment in a line: trypsin protease activity blockade – biochemical, quenched peptide fluorescence, cherry-pick, selectivity assay for Rce1 protease inhibitor project, dose response (AID 488789).
In assay [5] the target is T4, CAAX prenyl protease 2 (Homo sapiens, UniProt Q9Y256).
T4 sequence (Q9Y256 whole entry): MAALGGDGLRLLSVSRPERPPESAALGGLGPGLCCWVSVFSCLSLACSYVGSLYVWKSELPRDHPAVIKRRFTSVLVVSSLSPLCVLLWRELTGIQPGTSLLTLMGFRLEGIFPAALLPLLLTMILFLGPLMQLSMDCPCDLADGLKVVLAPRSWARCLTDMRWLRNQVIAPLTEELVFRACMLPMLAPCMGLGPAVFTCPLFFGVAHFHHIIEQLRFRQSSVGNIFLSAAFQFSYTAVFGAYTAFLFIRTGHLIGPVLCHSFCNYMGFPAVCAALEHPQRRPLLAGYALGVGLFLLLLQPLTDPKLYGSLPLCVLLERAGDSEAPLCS
Nature of the assay: inhibition of Ras-converting CAAX protease Rce1 – biochemical, yeast membranes, quenched-peptide fluorescence, cherry-pick, dose response (AID 588849).

The target of another assay is T5, Bcl-2-related protein A1 (Mus musculus, UniProt Q07440).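 Note: confirmatory dose–response counterscreen on Bfl-1, used to check hits from a UBC13 polyubiquitin inhibitor campaign.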
T5 sequence (Q07440 whole entry): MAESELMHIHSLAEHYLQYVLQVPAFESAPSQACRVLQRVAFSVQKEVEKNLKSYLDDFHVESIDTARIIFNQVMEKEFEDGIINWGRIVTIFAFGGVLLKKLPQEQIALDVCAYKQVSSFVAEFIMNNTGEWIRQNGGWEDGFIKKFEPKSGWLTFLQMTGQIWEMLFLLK
The class given is functional.

In assay [6] the target is T6, Ubiquitin-conjugating enzyme E2 N (Homo sapiens, UniProt P61088).
T6 sequence (P61088 whole entry): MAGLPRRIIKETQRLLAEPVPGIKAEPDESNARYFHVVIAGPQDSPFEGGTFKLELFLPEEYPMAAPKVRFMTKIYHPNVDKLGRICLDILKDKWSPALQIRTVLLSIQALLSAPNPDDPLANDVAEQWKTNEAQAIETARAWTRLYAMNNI
The class given is functional.

The target of assay [7] is T6, Ubiquitin-conjugating enzyme E2 N. The class given is functional. This is another data set of the same source.
A short description of assay [8]: luciferase reporter signal suppression in cells – H4 neuroglioma cells, luminescence, dose response (AID 1990). The class given is functional, cell-based. In general terms: In a reporter assay the amount or activity of a reporter protein is the signal.
Assay [9] in a line: Luminescence Cell-Based Dose Response HTS to Identify Inhibitors of 5'UTR Stem-Loop Driven Prion Protein mRNA Translation in H4 Neuroglioblastoma Cells. [Related pubchem assays: 1827 (Project Summary), 1813 (Primary HTS)]. The class given is functional.
The nature of assay [10]: alpha-synuclein stem-loop luciferase translation blockers – H4 neuroglioma cells, luminescence, confirmation (AID 1988). The class given is functional, cell-based.
Assay [11] can be described thus: A549 cell cytotoxicity, dose response, cytotoxicity control, plate reader, cherry-pick, antagonist series (AID 743412). The class given is functional, cell-based.
A short description of assay [12]: blockers of bursicon-stimulated LGR2 cAMP reporter – cell-based, HEK293, CRE-luciferase reporter, cherry pick, set 2, dose response (AID 743343).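 Note: transfected cells were stimulated with diluted bursicon conditioned medium after compound addition.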 The class given is functional.
Assay [13] is described as follows: blockade of melanocortin 4 receptor signaling – cell-based, plate reader, cherry pick, counter-screen for LGR2 antagonist project, dose response (AID 743444).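 Note: transfected HEK 293 cells stimulated with alpha-MSH peptide; potency of inhibitors of the alpha-MSH evoked signal.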 The class given is functional.
A short description of assay [14]: viability loss in HEK293 cells – cell-based, plate reader, cherry-picked samples, cytotoxicity control, dose response (AID 743446). The class given is functional.
Assay [15] concerns the target T7, CAAX prenyl protease 2 (Saccharomyces cerevisiae S288c, UniProt Q03530).
T7 sequence (Q03530 whole entry): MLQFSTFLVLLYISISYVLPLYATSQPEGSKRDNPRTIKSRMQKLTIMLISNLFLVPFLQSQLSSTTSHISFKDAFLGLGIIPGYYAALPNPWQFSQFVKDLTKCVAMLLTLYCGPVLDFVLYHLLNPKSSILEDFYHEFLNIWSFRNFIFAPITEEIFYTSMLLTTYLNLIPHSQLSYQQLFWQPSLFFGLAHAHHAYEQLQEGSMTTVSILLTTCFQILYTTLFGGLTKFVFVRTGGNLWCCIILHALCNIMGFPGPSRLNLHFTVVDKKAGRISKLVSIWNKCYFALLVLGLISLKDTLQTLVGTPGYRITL
The class given is biochemical.

Assay [16] has as its target T8, RNA-binding protein pos-1 (Caenorhabditis elegans, UniProt G5EF15).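 Note: purified POS-1 fused to maltose binding protein made in E. coli; potency of compounds blocking POS-1 binding to fluorescent RNA.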
T8 sequence (G5EF15 whole entry): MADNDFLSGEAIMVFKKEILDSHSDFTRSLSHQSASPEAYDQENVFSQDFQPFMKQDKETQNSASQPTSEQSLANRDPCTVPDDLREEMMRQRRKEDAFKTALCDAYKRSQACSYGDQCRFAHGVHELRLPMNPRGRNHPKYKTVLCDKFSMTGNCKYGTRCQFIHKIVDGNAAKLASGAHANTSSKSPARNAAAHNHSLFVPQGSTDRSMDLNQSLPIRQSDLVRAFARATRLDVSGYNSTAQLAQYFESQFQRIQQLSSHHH
The experiment in a line: disruptors of C. elegans POS-1 RNA interaction – biochemical, fluorescence polarization, dose response (AID 1964). (In general: Polarisation of emitted light reports the rotation of a fluorescent probe.)

Assay [17] concerns Streptococcus sp. 'group A'. Nature of the assay: Streptococcus pyogenes SK(-)GAS viability under kanamycin – luminescence, BacTiterGlo, confirmation, counter-screen for streptokinase expression inhibitor project, dose response (AID 1900). The class given is functional, organism-based.
A further assay has as its system Streptococcus. Nature of the assay: GAS UMAA2166 growth inhibition – luminescence, BacTiterGlo, counter-screen for streptokinase expression inhibitor project, dose response (AID 1915).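 Note: potency for reduction of bacterial viability or growth.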 The class given is functional, organism-based.
Assay [18] is described as follows: THP-1 cell cytotoxicity, dose response, cytotoxicity control for non-replicating M. tuberculosis project (AID 489025). The class given is functional.
A short description of assay [19]: Vero E6 cell cytotoxicity, dose response, cytotoxicity control for non-replicating M. tuberculosis project, secondary assay (AID 492998). The class given is functional, VeroE6. The conditions noted are these: Vero C1008.

Activity calls are given as the source filed them. Where only a bound is given, the exact number is not on record here.

The AC50 is the concentration at which the activity in the assay is half-maximal. The term IC50 denotes the concentration that inhibits the measured activity by half. As a reminder, the CC50 is the concentration giving 50% cytotoxicity.

Chain of Trypsin (P00761 whole entry): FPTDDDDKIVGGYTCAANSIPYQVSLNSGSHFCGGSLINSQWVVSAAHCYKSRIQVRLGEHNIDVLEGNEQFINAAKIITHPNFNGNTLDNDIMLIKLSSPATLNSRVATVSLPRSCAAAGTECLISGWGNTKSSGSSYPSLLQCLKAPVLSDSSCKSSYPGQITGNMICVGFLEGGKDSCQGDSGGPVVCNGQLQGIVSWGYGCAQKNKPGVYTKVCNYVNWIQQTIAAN

In the case of `Cn1c(=O)c2[nH]c(-c3ccccc3Cl)c(O)c2n(C)c1=O`, the values for the EC50 in [1], in assay [2] and in assay [3] were 55.6 µM (inactive), 16 µM (active) and > 53 µM (inactive), respectively.
With `CCC(=O)NC(c1cc(Cl)c2cccnc2c1O)C1CC1` (stereo unspecified), the AC50 is 10.1 µM (active) with HEK293 and 1.89 µM (active) with INS1.
Regarding `COc1ccc(C)c2sc(NC(=O)C3=COCCO3)nc12`, in assay [4], the EC50 is recorded as > 195 µM (not active). The values for the AC50 at Trypsin and on CAAX prenyl protease 2 [5] were 18.8 µM (active) and 13.4 µM (active), respectively.
On to `Cc1ccc(C(C(=O)NCC2CCCO2)N(C(=O)c2snc(C(N)=O)c2N)c2ccc3c(c2)OCCO3)cc1` (stereo unspecified), for which the IC50 at Bcl-2-related protein A1 was > 20 µM (inactive); in assay [6], 12.6 µM (active); in assay [7] it was 13.1 µM (active).
On to `COc1cccc(-c2nc3cc(N4CCN(C)CC4)ccc3[nH]2)c1`, for which the EC50 is 9.73 µM (inconclusive) in assay [8], 5.7 µM (active) in assay [9], < 0.16 µM (active) in [4] and 9.34 µM (inconclusive) in [10]. Further, the AC50 was 0.857 µM (active) in the assay with HEK293; > 52 µM (inactive) in [11]; 2.55 µM (active) in [12]; 1.57 µM (active) in assay [13]; > 52 µM (inactive) in assay [14].
For the molecule `COc1ccc(C2=NN(C(=O)CCC(=O)O)C(c3cccs3)C2)cc1` (stereo unspecified), the AC50 at Trypsin is 4.38 µM (active); on CAAX prenyl protease 2 [15] it was 9.03 µM (active); on CAAX prenyl protease 2 [5], 12.6 µM (active).
Regarding `CC/C(=C\C=C\[C@@H]1C=C[C@@H]2CCC[C@H]2[C@@H]1C(=O)c1ccc[nH]1)[C@@H]1O[C@@H]([C@@H](C)C(=O)O)CC[C@@H]1C`, the EC50 is 14.2 µM (active) in [8]; > 300 µM (inconclusive) in assay [16]; 0.202 µM (active) in [17]; 14.4 µM (active) in assay [9]; > 120 µM (not active) in [10]; 0.147 µM (active) in the assay on Streptococcus. The CC50 in assay [18] was 12.4 µM (active); in assay [19] it was 16.5 µM (active).

For the origin of these results see ChEMBL document CHEMBL1201862, “PubChem BioAssay data set” (2004).
